Laboratory results published in patent publication US6069166A, “Fused heterocyclic benzenecarboxamide derivatives and PGD2 antagonists comprising them” (Shionogi & Co., Ltd., priority 1996, dated 2000).

Assays:
[1] = tested on: nasal blockage (intranasal pressure); assay: Nasal blockage model in sensitized guinea pigs (intranasal pressure after OVA challenge); assay type: in vivo, Hartley male guinea pig; conditions: oral, 60 min before antigen exposure; AUC of intranasal pressure 0-30 min vs vehicle; dose not given
Method: Experiment 3 Experiment Using Nasal Blockage Model
The method used for measuring the intranasal pressure for evaluating the anti-nasal blockage using guinea pigs is described below.
A 1% ovalbumin (OVA) solution was treated with an ultrasonic nebulizer to obtain an aerosol. Hartley male guinea pig was sensitized by inhaling twice the aerosol for 10 min at one-week interval. Seven-day after the sensitization, the guinea pig was exposed to an antigen to initiate the reaction. Briefly, the trachea was incised under the anesthesia with pentobarbital (30 mg/kg. i.p.) and cannulas were inserted into the trachea at the pulmonary and nasal cavity sides. The canal inserted at the pulmonary side was connected with an artificial respirator that provides 4 ml air 60 times/min. After arresting the spontaneous respiration of the guinea pig with Gallamin (2 mg/kg, i.v.), air was supplied to the snout side with an artificial respirator at the frequency of 70 times/min, and the flow rate of 4 ml air/time, and the atmospheric pressure required for the aeration was measured by the use of a transducer fitted at the branch. The measurement was used as a parameter of the nasal cavity resistance. The exposure of an antigen was carried out by generating aerosol of 3% OVA solution for 3 min between the respirator and the nasal cavity cannula. […]

PGD2 Receptor [2] = target: T1, PGD2 Receptor (Homo sapiens, UniProt Q13258); assay: Binding to PGD2 receptor (human platelet membrane fraction, [3H]PGD2); conditions: human platelet membrane fraction 0.1 mg, 5 nM [3H]PGD2, 4° C., 90 min, pH 7.4; read-out: IC50 (inhibition of [3H]PGD2 binding)
T1 construct: A suspension adjusted to contain platelet at a final concentration of; endogenous in cells; host or cells: washed human platelets from peripheral blood of a healthy volunteer
T1 sequence (Q13258 1-359): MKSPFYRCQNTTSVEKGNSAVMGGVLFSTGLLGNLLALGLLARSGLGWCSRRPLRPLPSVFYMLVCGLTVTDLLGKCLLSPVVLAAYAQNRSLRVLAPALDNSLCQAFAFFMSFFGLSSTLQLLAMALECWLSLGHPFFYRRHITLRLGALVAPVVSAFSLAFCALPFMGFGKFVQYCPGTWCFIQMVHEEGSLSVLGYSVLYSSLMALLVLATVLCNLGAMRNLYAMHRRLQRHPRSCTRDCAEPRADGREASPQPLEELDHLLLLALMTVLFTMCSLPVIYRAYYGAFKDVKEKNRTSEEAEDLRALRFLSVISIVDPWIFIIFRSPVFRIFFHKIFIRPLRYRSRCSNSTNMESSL
Method: Experiment 1 Binding to PGD2 Receptor
(1) Preparation of Human Platelet Membrane Fraction
Blood sample was obtained using a plastic syringe containing 3.8% sodium citrate from the vein of healthy volunteers (adult male and female), put into a plastic test tube and mixed gently by rotation. The sample was then centrifuged at 1800 rpm, 10 min at room temperature, and the supernatant containing PRP (platelet-rich plasma) was collected. The PRP was re-centrifuged at […], 22 min at room temperature to obtain platelets. The platelets were homogenized using a homogenizer (Ultra-Turrax) followed by centrifugation 3 times at 20,000 rpm, 10 min at 4° C. to obtain a platelet membrane fraction. After protein determination, the membrane fraction was adjusted to 2 mg/ml and preserved in a refrigerator at -80° C. until use.
(2) Binding to PGD2 Receptor
To a binding-reaction solution (50 mM Tris/HCl, pH 7.4, 5 mM MgCl2) (0.2 ml) were added the human platelet membrane fraction (0.1 mg) and 5 nM [^3 H]PGD2 (115Ci/mmol), and reacted at 4° C. for 90 min. After the reaction completed, the reaction mixture was filtered through a glass fiber filter paper, washed several times with cooled saline, and measured the radioactivity retained on the filter paper. The specific binding was calculated by subtracting the non-specific binding (the binding in the presence of 10 μM PGD2) from the total binding. The inhibitory activity of each compound was expressed as the concentration required for 50% inhibition (IC50), which was determined by depicting a substitution curve by plotting the binding ratio (%) in the presence of each compound, where the binding ratio in the absence of a test compound is 100%.

PGD2 Receptor [3] = target: T1, PGD2 Receptor; assay: Antagonistic activity against PGD2 receptor using human platelet (PGD2-induced cAMP increase); assay type: cell-based; conditions: human platelets 5×10^8/ml, 0.1 μM PGD2, IBMX 0.5 mM, cAMP by radioimmunoassay; read-out: IC50 (inhibition of cAMP increased by PGD2)
Method: Experiment 2 Evaluation of Antagonistic Activity Against PGD2 Receptor Using Human Platelet Peripheral blood was obtained from a healthy volunteer using a syringe in which 1/9 volume of citric acid/dextrose solution has been previously added. The syringe was subjected to centrifugation at 180 g for 10 min to obtain the supernatant (PRP:platelet rich plasma). The resultant PRP was washed 3 times with a washing buffer and the number of platelet was counted with a micro cell counter. A suspension adjusted to contain platelet at a final concentration of 5×10^8 /ml was warmed at 37° C., and then subjected to the pre-treatment with 3-isobutyl-1-methylxanthine (0.5 mM) for 5 min. To the suspension was added a test compound diluted at various concentration. Ten-minute later, the reaction was induced by the addition of 0.1 μM PGD2 and, 2-minute later, stopped by the addition of hydrochloric acid. The platelet was destroyed with an ultrasonic homogenizer. After centrifugation, the cAMP in the supernatant was determined by radioimmunoassay. PGD2 receptor antagonism of a drug was evaluated as follows. The inhibition rate regarding cAMP increased by the addition of PGD2 was determined at individual concentration, and then the concentration of the drug required for 50% inhibition (IC50) was calculated.

IC50 (PGD2 Receptor [2]) [nM] | IC50 (PGD2 Receptor [3]) [nM] | Structure (SMILES) | Inhibitory Rate (%) [1] [%]
26 | 42 | CC1(C)[C@H]2C[C@H](C/C=C\CCCC(=O)O)[C@@H](NC(=O)c3cccc4ccsc34)[C@@H]1C2 [IA-a-1] | 80
11 | 150 | Cc1csc2c(C(=O)N[C@@H]3[C@@H](C/C=C\CCCC(=O)O)C[C@H]4C[C@@H]3C4(C)C)cccc12 [IA-a-4] | –
1.2 | 11 | CC1(C)[C@H]2C[C@H](C/C=C\CCCC(=O)O)[C@@H](NC(=O)c3cccc4c(Br)csc34)[C@@H]1C2 [IA-a-7] | –
0.41 | 4.4 | COc1csc2c(C(=O)N[C@@H]3[C@@H](C/C=C\CCCC(=O)O)C[C@H]4C[C@@H]3C4(C)C)cccc12 [IA-a-9] | –
